From US20220194938A1, “NOVEL COMPOUNDS AND PHARMACEUTICAL COMPOSITIONS THEREOF FOR THE TREATMENT OF INFLAMMATORY DISORDERS” (GALAPAGOS NV, priority 2019, published 2022)

target: T1, human IRAK-4 (Homo sapiens, UniProt Q9NWZ3); test: Phosphorylation IC50 determination for human IRAK-4 (ADP-Glo kinase assay); details: human IRAK-4, RIP140 substrate, Km ATP; read-out: IRAK4 ADPglo biochemical assay IC50
T1 construct: purchased Carna Biosciences 09 145
T1 sequence (Q9NWZ3 1-460): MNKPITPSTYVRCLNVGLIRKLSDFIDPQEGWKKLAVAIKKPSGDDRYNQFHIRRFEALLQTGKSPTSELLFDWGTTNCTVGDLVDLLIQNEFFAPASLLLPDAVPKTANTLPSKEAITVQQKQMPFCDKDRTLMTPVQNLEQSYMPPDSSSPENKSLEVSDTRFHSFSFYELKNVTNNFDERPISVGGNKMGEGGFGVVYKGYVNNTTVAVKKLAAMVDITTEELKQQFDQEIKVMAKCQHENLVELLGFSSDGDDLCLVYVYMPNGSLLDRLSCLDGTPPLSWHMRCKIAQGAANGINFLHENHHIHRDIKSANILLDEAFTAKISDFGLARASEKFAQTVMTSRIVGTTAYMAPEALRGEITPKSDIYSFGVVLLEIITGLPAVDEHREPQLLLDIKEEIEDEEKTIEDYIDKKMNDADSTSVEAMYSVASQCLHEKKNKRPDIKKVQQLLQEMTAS
Experimental: 3.1. Phosphorylation IC50 Determination for Human IRAK-4
The phosphorylation of the substrate RIP140 (SEQ ID1) by IRAK4 at Km ATP was detected with the ADP-Glo Kinase Assay (Promega, Cat #V9103), a luminescent kinase assay which measures the ADP formed from a kinase reaction. (Zegzouti et al. 2009) In a second step the kinase reaction was terminated and all the remaining ATP was depleted. In a final step the ADP was converted into ATP and this newly synthesized ATP was measured by using a luciferase/luciferin reaction with a luminescent reader. The luminescent signal positively correlated with kinase activity, in particular kinase inhibition giving a decrease of the luminescent signal.
For the semi-automated assay, the positive control (100% inhibition) was prepared by diluting 10 mM staurosporine stock mixture (20 μL) in water (3.8 mL) and DMSO (180 μL), thus resulting in a […] staurosporine solution at 1% DMSO (final concentration after further dilution in the kinase reaction).
For the automated assay, no pre-dilution of the 10 mM staurosporine stock was made. 10 mM staurosporine was spotted directly in the assay plate using acoustic dispensing and complemented with DMSO to result in a similar final concentration as mentioned above.
For the semi-automated assay, the negative control (0% inhibition) was prepared by mixing water (3.8 mL) and DMSO (200 μL) resulting in a final concentration of 1% DMSO after further dilution in the kinase reaction. For the automated assay no pre-dilution of DMSO was done. 100% DMSO was spotted directly on the assay plate.
The assay buffer solution was prepared at a concentration corresponding to 5 fold the final (most diluted) assay concentration by mixing a solution of 125 mM TRIS pH 7.5+0.05% Triton X-100+2.5 mM EGTA (5.27 mL) with 1M mgCl2 (72 μL), 1M DTT (57.6 μL), and 200 mM MnCl2 (360 μL).
For example, for the semi-automated method, the enzyme-substrate mixture was prepared by mixing water (3999 μL), assay buffer solution (1380 μL), 1 mM RIP140 (138 μL—SEQ ID1), and 200 ng/mL IRAK 4 (3.45 μL Carna Biosciences, 09 145).
For semi-automated method, the ATP mixture was prepared at a concentration corresponding to 2.5 fold the final (most diluted) assay concentration of the semi-automated method and 1.5 fold the final (most diluted) assay concentration of the automated method. For example, for the semi-automated method, the ATP mixture was prepared by mixing water (4126 μL), assay buffer solution (1380 μL), and 10 mM ATP (13.80 μL).
The assay was performed either in a semi-automated or fully automated manner. The assay volume and the incubation time of the ADP detection were different accordingly the method used.
3.1.3.1. Semi-Automated Assay
The compounds were prepared as a serial dilution of 10 point dose responses with 1/5 dilution steps in 100% DMSO starting from 2 mM highest concentration, diluted 1/20 in water. 1 μL was transferred dry to the assay plates.
On each assay plate 32 wells of each control (positive & negative) were added, followed by 2 μL enzyme-substrate mixture.
The reaction was started by adding 2 μL diluted ATP (final concentration Km ATP) on the assay plates. Plates were centrifuged for a few seconds at 1000 rpm followed by an incubation at r.t. for 120 min.
The reactions were stopped and the unconsumed ATP was depleted by adding 5 μL ADP-glo Reagent (Promega, Cat #V9103) to the reaction. The plates were quickly centrifuged at 1000 rpm and incubated at r.t. for 40 min corresponding to full ATP depletion.
The ADP was converted back to ATP and luciferase and luciferin were introduced to detect ATP by adding 10 μL kinase detection reagent (Promega, Cat #V9103) to the reaction. The plates were centrifuged for a few seconds at 1000 rpm and incubated at r.t. for a further 30 min.
Luminescent read out was performed on an Envision luminescent reader (Perkin Elmer). […]

| IC50 [µM] | Structure (SMILES) |
| --- | --- |
| 0.005 to 0.01 | CC(C)(O)CCc1cn2cc(NC(=O)c3cccc(C(F)(F)F)n3)c(C(=O)NCC3CC3)cc2n1 [Compound 45, N-(cyclopropylmethyl)-2-(3-hydroxy-3-methylbutyl)-6-(6-(trifluoromethyl)picolinamido)imidazo[1,2-a]pyridine-7-carboxamide] |
| 0.005 to 0.01 | CC(C)(O)CCc1cn2cc(NC(=O)c3cccc(C(F)(F)F)n3)c(C(=O)NC3(C)CC3)cc2n1 [Compound 46, 2-(3-hydroxy-3-methylbutyl)-N-(1-methylcyclopropyl)-6-(6-(trifluoromethyl)picolinamido)imidazo[1,2-a]pyridine-7-carboxamide] |
| 0.005 to 0.01 | CC(C)(O)CCc1cn2cc(NC(=O)c3cccc(C(F)(F)F)n3)c(C(=O)NC3CCOC3)cc2n1 (centres unmarked) [Compound 47, 2-(3-hydroxy-3-methylbutyl)-N-(tetrahydrofuran-3-yl)-6-(6-(trifluoromethyl)picolinamido)imidazo[1,2-a]pyridine-7-carboxamide] |

More lines, now with the values behind:

| Structure (SMILES) | IC50 [µM] |
| --- | --- |
| COc1cc2nc(CCC(C)(C)O)cn2cc1NC(=O)c1cccnc1O [Compound 9, 2-hydroxy-N-[2-(3-hydroxy-3-methyl-butyl)-7-methoxy-imidazo[1,2-a]pyridin-6-yl]pyridine-3-carboxamide] | 0.005 to 0.01 |
| COc1cc2nc(CCC(C)(C)O)cn2cc1NC(=O)c1nc(C)ccc1Cl [Compound 11, 3-chloro-N-[2-(3-hydroxy-3-methyl-butyl)-7-methoxy-imidazo[1,2-a]pyridin-6-yl]-6-methyl-pyridine-2-carboxamide] | > 0.05 |
| COc1cc2nc(CCC(C)(C)O)cn2cc1NC(=O)c1cncc(C(F)(F)F)n1 [Compound 17, N-[2-(3-hydroxy-3-methyl-butyl)-7-methoxy-imidazo[1,2-a]pyridin-6-yl]-6-(trifluoromethyl)pyrazine-2-carboxamide] | 0.01 to 0.05 |
| CNC(=O)c1cc2nc(CCS(C)(=O)=O)cn2cc1NC(=O)c1cccc(C(F)(F)F)n1 [Compound 30, N-methyl-2-(2-methylsulfonylethyl)-6-[[6-(trifluoromethyl)pyridine-2-carbonyl]amino]imidazo[1,2-a]pyridine-7-carboxamide] | 0.01 to 0.05 |
| COc1cc2nc(CCC(C)(C)O)cn2cc1NC(=O)c1ccc(F)c(Cl)n1 [Compound 32, 6-chloro-5-fluoro-N-[2-(3-hydroxy-3-methylbutyl)-7-methoxyimidazo[1,2-a]pyridin-6-yl]pyridine-2-carboxamide] | 0.01 to 0.05 |
| CC(C)(O)CCc1cn2cc(NC(=O)c3cccc(C(F)(F)F)n3)c(Br)cc2n1 [Compound 36, N-[7-bromo-2-(3-hydroxy-3-methyl-butyl)imidazo[1,2-a]pyridin-6-yl]-6-(trifluoromethyl)pyridine-2-carboxamide] | 0.0001 to 0.005 |
| CN1CC(NC(=O)c2cc3nc(CCC(C)(C)O)cn3cc2NC(=O)c2cccc(C(F)(F)F)n2)C1 [Compound 43, 2-(3-hydroxy-3-methylbutyl)-N-(1-methylazetidin-3-yl)-6-(6-(trifluoromethyl)picolinamido)imidazo[1,2-a]pyridine-7-carboxamide] | 0.005 to 0.01 |
| CC(C)(O)CCc1cn2cc(NC(=O)c3cccc(C(F)(F)F)n3)c(C(=O)NC3COC3)cc2n1 [Compound 44, 2-(3-hydroxy-3-methylbutyl)-N-(oxetan-3-yl)-6-(6-(trifluoromethyl)picolinamido)imidazo[1,2-a]pyridine-7-carboxamide] | 0.005 to 0.01 |
